Measured values taken from the NIST ThermoML archive (doi:10.1016/j.jct.2011.05.030).
Numbers after ± are expanded uncertainties.

Assays:
[1] = Crystal; for vapor or sublimation pressure: Calculated from knudsen effusion weight loss; for Normal melting temperature: DTA
[2] = Molar enthalpy of transition or fusion; details: Crystal; DSC

c1ccc2c(c1)-c1cccc3c1c-2cc1ccccc13 [benz[e]acephenanthrylene]
[1]
Details	vapor or sublimation pressure [kPa]
364.1 K	4.7e-06 ± 2.5e-07
369.3 K	8.12e-06 ± 4.2e-07
374.2 K	1.46e-05 ± 7e-07
377.2 K	1.9e-05 ± 1e-06
379.2 K	2.41e-05 ± 1.2e-06
382.2 K	3.21e-05 ± 1.6e-06
384.2 K	3.95e-05 ± 2e-06
387.2 K	5.4e-05 ± 2.7e-06
389.1 K	6.22e-05 ± 3.1e-06
392.1 K	8.51e-05 ± 4.3e-06
394.2 K	0.000101 ± 5e-06
397.1 K	0.000131 ± 7e-06
399.1 K	0.000159 ± 8e-06
404.1 K	0.00023 ± 1.2e-05
409 K	0.000356 ± 1.8e-05
414.1 K	0.000533 ± 2.7e-05

Details	Molar enthalpy of transition or fusion [kcal/mol]	Normal melting temperature [°C]
[1]	–	168.00 ± 0.5
[2]	4.37 ± 0.669	–

c1ccc2c(c1)ccc1cc3c(ccc4ccccc43)cc12 [dibenz[a,h]anthracene]
[1]
Details	vapor or sublimation pressure [kPa]
399.2 K	5.11e-06 ± 2.7e-07
404 K	5.53e-06 ± 2.9e-07
409.1 K	9.22e-06 ± 4.7e-07
414 K	1.39e-05 ± 7e-07
419.1 K	3.95e-05 ± 2e-06
424.2 K	5.45e-05 ± 2.8e-06
429.2 K	8.89e-05 ± 4.5e-06
434.2 K	0.000112 ± 6e-06
439.1 K	0.000174 ± 9e-06
444.1 K	0.00028 ± 1.4e-05
449.1 K	0.000369 ± 1.9e-05

Details	Molar enthalpy of transition or fusion [kcal/mol]	Normal melting temperature [°C]
[1]	–	269.50 ± 0.5
[2]	5.86 ± 0.693	–

c1ccc2c(c1)-c1ccc3ccc4cccc5cc-2c1c3c45 [indeno[1,2,3-cd]pyrene]
[1]
Details	vapor or sublimation pressure [kPa]
384.1 K	5.38e-06 ± 2.8e-07
389.1 K	7.96e-06 ± 4.1e-07
394.2 K	1.3e-05 ± 7e-07
399.2 K	2.19e-05 ± 1.1e-06
404.1 K	3.28e-05 ± 1.7e-06
409.1 K	5.33e-05 ± 2.7e-06
414.1 K	8.53e-05 ± 4.3e-06
419.1 K	0.000133 ± 7e-06
424.1 K	0.000201 ± 1e-05

Details	Molar enthalpy of transition or fusion [kcal/mol]	Normal melting temperature [°C]
[1]	–	162.00 ± 0.5
[2]	5.47 ± 0.669	–

c1ccc2cc3c(cc2c1)-c1cccc2cccc-3c12 [benzo[k]fluoranthene]
[1]
Details	vapor or sublimation pressure [kPa]
384.2 K	1.63e-05 ± 8e-07
389.2 K	2.42e-05 ± 1.2e-06
394.1 K	3.62e-05 ± 1.8e-06
399.1 K	5.62e-05 ± 2.8e-06
404 K	8.86e-05 ± 4.4e-06
409 K	0.000136 ± 7e-06
411 K	0.000157 ± 8e-06
419 K	0.000383 ± 1.9e-05
424 K	0.000557 ± 2.8e-05

Details	Molar enthalpy of transition or fusion [kcal/mol]	Normal melting temperature [°C]
[1]	–	217.00 ± 0.5
[2]	6.33 ± 0.693	–

c1cc2ccc3ccc4ccc5cccc6c(c1)c2c3c4c56 [benzo[ghi]perylene]
[1]
Details	vapor or sublimation pressure [kPa]
399.1 K	4.16e-06 ± 2.2e-07
404 K	7e-06 ± 3.6e-07
409 K	1.15e-05 ± 6e-07
414.4 K	1.79e-05 ± 9e-07
419 K	2.83e-05 ± 1.4e-06
424 K	4.36e-05 ± 2.2e-06
429 K	6.54e-05 ± 3.3e-06
434.1 K	0.000104 ± 5e-06
439 K	0.000138 ± 7e-06
441 K	0.000207 ± 1e-05
449.1 K	0.000303 ± 1.5e-05
454.1 K	0.000432 ± 2.2e-05

Details	Molar enthalpy of transition or fusion [kcal/mol]	Normal melting temperature [°C]
[1]	–	272.50 ± 0.5
[2]	3.9 ± 0.669	–
